Test results taken from paper PMC6537752, “Molecular characterization of CHAD domains as inorganic polyphosphate-binding modules” (Life Science Alliance, 2019).

Experiments:
[1] = biological target: T1, CtCHAD (Chlorobaculum tepidum, UniProt Q8KE09); assay: grating-coupled interferometry competition against polyP-coated chip; type: binding
T1 construct: gene CT0884; CHAD domain, residues 208-522; N-terminal 6xHis tag cleaved by TEV; E. coli BL21 (DE3) RIL; 36,194 D monomer; mainly dimer, some tetramer in solution
T1 sequence (Q8KE09 208-522): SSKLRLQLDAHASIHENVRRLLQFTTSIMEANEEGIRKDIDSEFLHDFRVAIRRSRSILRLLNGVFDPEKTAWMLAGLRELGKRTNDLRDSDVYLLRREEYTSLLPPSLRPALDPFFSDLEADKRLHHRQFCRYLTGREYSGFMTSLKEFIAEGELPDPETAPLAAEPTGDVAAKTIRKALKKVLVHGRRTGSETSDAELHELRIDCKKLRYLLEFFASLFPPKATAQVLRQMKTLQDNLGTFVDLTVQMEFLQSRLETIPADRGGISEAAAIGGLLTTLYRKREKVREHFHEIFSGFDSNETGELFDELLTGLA

[2] = biological target: T2, ygiF-full length 1–433 (FL) (Escherichia coli, UniProt P30871); assay: malachite green phosphate release; type: biochemical; details: 10 nM enzyme, 500 μM substrate, 20 mM Bis-Tris propane pH 8.5, 150 mM NaCl, 5 mM MgCl2, 37°C, 7 min
T2 sequence (P30871 1-433): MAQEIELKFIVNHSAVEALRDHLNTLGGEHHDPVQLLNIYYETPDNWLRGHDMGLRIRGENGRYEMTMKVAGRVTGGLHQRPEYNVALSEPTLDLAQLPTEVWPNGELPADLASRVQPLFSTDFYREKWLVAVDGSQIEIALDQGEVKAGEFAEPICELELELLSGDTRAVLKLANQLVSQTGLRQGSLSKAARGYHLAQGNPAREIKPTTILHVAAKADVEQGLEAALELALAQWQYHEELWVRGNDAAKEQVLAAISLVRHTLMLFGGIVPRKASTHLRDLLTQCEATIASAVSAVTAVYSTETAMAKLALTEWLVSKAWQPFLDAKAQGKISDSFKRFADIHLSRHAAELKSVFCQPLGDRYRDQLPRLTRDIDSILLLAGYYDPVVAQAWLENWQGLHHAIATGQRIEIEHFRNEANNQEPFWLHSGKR

[3] = biological target: T3, ygiF-TTM 1–200 (TTM) (Escherichia coli, UniProt P30871); assay: malachite green phosphate release; type: biochemical; details: 10 nM enzyme, 500 μM substrate, 20 mM Bis-Tris propane pH 8.5, 150 mM NaCl, 5 mM MgCl2, 37°C, 7 min
T3 sequence (P30871 1-200): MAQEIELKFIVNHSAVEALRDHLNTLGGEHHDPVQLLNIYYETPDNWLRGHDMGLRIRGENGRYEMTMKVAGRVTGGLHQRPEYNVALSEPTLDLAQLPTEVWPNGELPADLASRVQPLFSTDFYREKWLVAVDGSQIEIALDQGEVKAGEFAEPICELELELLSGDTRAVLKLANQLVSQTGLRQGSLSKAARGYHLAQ

[4] = biological target: the molecule itself; assay: SEC; analytical size-exclusion chromatography, Superdex 200 Increase 10/300 GL, buffer A (50 mM PBS, pH 7.5, 500 mM NaCl), 500 μl of protein at 0.5 mg/ml, no polyP
[5] = biological target: the molecule itself; assay: SEC-RALS (size-exclusion chromatography with right-angle light scattering); apo CtCHAD, 2 mg/ml, 20 mM Hepes pH 7.5, 150 mM NaCl, Superdex 200 10/300 increase, 35°C
[6] = biological target: the molecule itself; assay: SEC-RALS (size-exclusion chromatography with right-angle light scattering); CtCHAD incubated with 1 mM polyP (average chain length ∼30 Pi units) for 3 h at room temperature, 2 mg/ml, 20 mM Hepes pH 7.5, 150 mM NaCl, Superdex 200 10/300 increase, 35°C

IC50 [1] [nM] | Molecule | malachite green phosphate release [2] | malachite green phosphate release [3] | stoichiometry N [4] | stoichiometry N [5] | stoichiometry N [6]
~200 | O=P(O)(O)OP(=O)(O)OP(=O)(O)O [tripolyphosphate] | CHAD domain stimulated the previously reported tripolyphosphatase activity of ygiF | The substrates tested were ATP (Merck), sodium tripolyphosphate (Merck), and polyP |  |  | 
 | CtCHAD^208–522 (CHAD domain–containing protein from Chlorobium tepidum) (domain or fragment, UniProt Q8KE09 208-522, looked up, CHAD domain of the C. tepidum CHAD domain–containing protein, UniProt Q8KE09, residues 208-522; synthetic gene; not shown: His6, N-terminal, cleaved) SSKLRLQLDAHASIHENVRRLLQFTTSIMEANEEGIRKDIDSEFLHDFRVAIRRSRSILRLLNGVFDPEKTAWMLAGLRELGKRTNDLRDSDVYLLRREEYTSLLPPSLRPALDPFFSDLEADKRLHHRQFCRYLTGREYSGFMTSLKEFIAEGELPDPETAPLAAEPTGDVAAKTIRKALKKVLVHGRRTGSETSDAELHELRIDCKKLRYLLEFFASLFPPKATAQVLRQMKTLQDNLGTFVDLTVQMEFLQSRLETIPADRGGISEAAAIGGLLTTLYRKREKVREHFHEIFSGFDSNETGELFDELLTGLA |  |  | 2 | 4 | ≥ 4
